Five compounds from patent US20150344444A1, “BET-PROTEIN-INHIBITING DIHYDROXYQUINOXALINONES” (BAYER PHARMA AKTIENGESELLSCHAFT, priority 2012, published 2015) can be followed below.

For test [1], the target named is T1, BRD4 Bromo Domain 2 [BRD4(2)] (Homo sapiens, UniProt O60885).
T1 construct: N-terminally His6-tagged BRD4(2) (amino acids 357-445); made in house; host or cells: E. coli
Put plainly: BRD4(2)/acetylated peptide H4 binding assay (TR-FRET). The note with it: inhibition of interaction between His6-tagged BRD4(2) (amino acids 357-445) and acetylated histone H4 peptide. In short, it runs like this: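 His6-BRD4(2) aa 357-445 (E. coli) at typically 100 nM, biotinylated tetra-acetylated H4 peptide; HEPES pH 7.5 with NaCl, KF, CHAPS, BSA. 10-min compound preincubation, then 1 h at 22 °C plus ≥3 h at 4 °C; 665/620 nm TR-FRET ratio. IC50 from 4-parameter fit, 11 concentrations 0.1 nM–20 μM, duplicates.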

A further test deals with MOLM-13 cells. Put plainly: MOLM-13 cell proliferation assay (alamarBlue). In kind it is cell-based. Particulars: inhibition of cell proliferation, 96 hours, human AML cell line. The gist of the method:
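MOLM-13 AML cells (4000/well, RPMI1640 + 10% FCS) treated 96 h at 37 °C with 1E-5 to 1E-8 M compound. Proliferation by alamarBlue fluorescence (ex 530/em 590), pre-treatment reading subtracted; IC50 versus buffer-treated cells.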
(Alamar Blue is a resazurin reagent that responds to reducing activity.)

The test system of another test is MOLP-8 cells. Put plainly: MOLP-8 cell proliferation assay (alamarBlue). It counts as cell-based. The note with it: inhibition of cell proliferation, 120 hours, human multiple myeloma cell line. The gist of the method:
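MOLP-8 myeloma cells in RPMI1640/20% FCS were treated with compound from 1E-5 to 1E-8 M for 120 h at 37 °C. Proliferation was measured by alamarBlue fluorescence (ex 530, em 590 nm), and the reading taken before dosing was subtracted. IC50 is relative to buffer-treated cells.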

One may read the IC50 as the concentration needed to halve the response being measured. Lower therefore signals inhibition by little substance.

On to `C[C@@H]1C(=O)N(C)c2ccc(Nc3ccc(C(=O)NC4CCN(C)CC4)cc3)cc2N1C1CCCCCC1` [Example 23, 4-{[(3R)-4-cycloheptyl-1,3-dimethyl-2-oxo-1,2,3,4-tetrahydroquinoxalin-6-yl]amino}-N-(1-methylpiperidin-4-yl)benzamide], for which the IC50 in test [1] is 152 nM; with MOLM-13 cells it was 1260 nM; with MOLP-8 cells it was 1020 nM.
For `C[C@@H]1C(=O)N(C)c2ccc(Nc3ccc(C(=O)NCC4COC4)cc3)cc2N1Cc1ccccc1` [Example 9, 4-{[(3R)-4-benzyl-1,3-dimethyl-2-oxo-1,2,3,4-tetrahydroquinoxalin-6-yl]amino}-N-(oxetan-3-ylmethyl)benzamide], the concentration for half-maximal inhibition (IC50) was 62 nM in test [1], 366 nM in the test on MOLM-13 cells and 139 nM with MOLP-8 cells.
Turning to `CC(C)N1CCN(C(=O)c2ccc(Nc3ccc4c(c3)N(C3CCOCC3)[C@H](C)C(=O)N4C)cc2)CC1` [Example 33], the IC50 in test [1] came out at 383 nM; with MOLM-13 cells, 1050 nM; in the test on MOLP-8 cells, 509 nM.
For `COc1cc(C(=O)N2CCN(C)CC2)ccc1Nc1ccc2c(c1)N(C1CCOCC1)[C@H](C)C(=O)N2C` [Example 38, (3R)-6-({2-methoxy-4-[(4-methylpiperazin-1-yl)carbonyl]phenyl}amino)-1,3-dimethyl-4-(tetrahydro-2H-pyran-4-yl)-3,4-dihydroquinoxalin-2(1H)-one], the values for the half-inhibitory concentration (IC50) (in test [1]; in the test with MOLM-13 cells; in the test on MOLP-8 cells) were 382 nM, 1790 nM and 758 nM, respectively.
In the same order, the values of `COc1cc(C(=O)NC2CCN(C)CC2)ccc1Nc1ccc2c(c1)N(C1CCOCC1)[C@H](C)C(=O)N2C` [Example 36, 4-{[(3R)-1,3-dimethyl-2-oxo-4-(tetrahydro-2H-pyran-4-yl)-1,2,3,4-tetrahydroquinoxalin-6-yl]amino}-3-methoxy-N-(1-methylpiperidin-4-yl)benzamide] are 441 nM, 1080 nM and 675 nM.
